# Biological target: T1, recombinant 15-PGDH (Homo sapiens, UniProt P15428)
# T1 sequence (P15428 1-266): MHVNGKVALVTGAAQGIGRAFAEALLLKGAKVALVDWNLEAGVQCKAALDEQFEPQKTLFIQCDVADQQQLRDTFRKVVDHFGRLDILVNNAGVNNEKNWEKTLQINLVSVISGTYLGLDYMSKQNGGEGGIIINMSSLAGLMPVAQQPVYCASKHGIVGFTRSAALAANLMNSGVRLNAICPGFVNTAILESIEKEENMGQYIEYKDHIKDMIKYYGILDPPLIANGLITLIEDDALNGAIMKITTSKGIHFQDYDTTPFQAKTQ
# Type: biochemical
# Conditions: recombinant human 15-PGDH, in vitro; read-out: PDGH Assay-IC50
# Description: The Recombinant 15-PGDH is human unless otherwise specified.
row,SMILES,IC50
1,Cn1cc2cc(-c3cc(C4CC4)c4c(N)c([S+]([O-])C5CCC5)sc4n3)cnc2n1 (stereo not shown) [Example 286],< 2.5 nM
2,Nc1c([S+]([O-])C2CCC2)sc2nc(-c3cncnc3)cc(-c3cnccn3)c12 (stereo not shown) [Example 289],< 2.5 nM
3,COCCC[S+]([O-])c1sc2nc(-c3cnc(N4CC(O)C4)nc3)cc(-c3ccccc3)c2c1N (stereo not shown) [Example 290],2.5 to 10 nM
4,COCC[S+]([O-])c1sc2nc(-c3cnc(N4CC(O)C4)nc3)cc(-c3ccccc3)c2c1N (stereo not shown) [Example 300],2.5 to 10 nM
5,COCCC[S+]([O-])c1sc2nc(-c3cnc4c(cnn4CCO)c3)cc(-c3ccccc3)c2c1N (stereo not shown) [Example 301],2.5 to 10 nM
6,COCCC[S+]([O-])c1sc2nc(-c3cnc4c(cnn4CCO)c3)cc(C3CC3)c2c1N (stereo not shown) [Example 302],2.5 to 10 nM
7,COCCC[S+]([O-])c1sc2nc(-c3cnc4c(c3)CNC4=O)cc(-c3ccccc3)c2c1N (stereo not shown) [Example 303],< 2.5 nM
8,Nc1c([S+]([O-])C2CCC2)sc2nc(-c3cnc4c(c3)CNC4=O)cc(-c3ncccn3)c12 (stereo not shown) [Example 304],2.5 to 10 nM
9,Cn1nccc1-c1cc(-c2cnc3c(c2)CNC3=O)nc2sc([S+]([O-])C3CCC3)c(N)c12 (stereo not shown) [Example 305],< 2.5 nM
10,Nc1c([S@+]([O-])C2CCC2)sc2nc(-c3cnc(NCCO)nc3)cc(C3CCC3)c12 [Example 306],< 2.5 nM
11,Nc1c([S+]([O-])C2CCC2)sc2nc(-c3cncnc3)cc(-c3cc[nH]n3)c12 (stereo not shown) [Example 307],< 2.5 nM
12,Nc1c([S+]([O-])C2CCC2)sc2nc(-c3cncnc3)cc(-c3ccon3)c12 (stereo not shown) [Example 308],< 2.5 nM
13,Nc1c([S@+]([O-])C2CCC2)sc2nc(-c3cncnc3)cc(-c3ccon3)c12 [Example 309],< 2.5 nM
14,Nc1c([S@@+]([O-])C2CCC2)sc2nc(-c3cncnc3)cc(-c3ccon3)c12 [Example 310],≥ 10 nM
15,Nc1c([S+]([O-])C2CCC2)sc2nc(-c3cncnc3)cc(-c3ccno3)c12 (stereo not shown) [Example 311],< 2.5 nM
16,Cn1nccc1-c1cc(-c2cnc(NCCO)nc2)nc2sc([S+]([O-])C3CCC3)c(N)c12 (stereo not shown) [Example 312],< 2.5 nM
17,Cn1nccc1-c1cc(-c2cnc(NCCO)nc2)nc2sc([S@+]([O-])C3CCC3)c(N)c12 [Example 313],< 2.5 nM
18,Cn1nccc1-c1cc(-c2cnc(NCCO)nc2)nc2sc([S@@+]([O-])C3CCC3)c(N)c12 [Example 314],≥ 10 nM
19,Cc1ncc(-c2cc(C3=CCNN3C)c3c(N)c([S+]([O-])C4CCC4)sc3n2)cn1 (stereo not shown) [Example 315],2.5 to 10 nM
20,Cn1nccc1-c1cc(-c2ccc3c(=O)[nH]ccc3c2)nc2sc([S+]([O-])C3CCC3)c(N)c12 (stereo not shown) [Example 316],2.5 to 10 nM
21,COCC[S+]([O-])c1sc2nc(-c3ccc4c(=O)[nH]ccc4c3)cc(-c3ccnn3C)c2c1N (stereo not shown) [Example 317],< 2.5 nM
22,COCC[S+]([O-])c1sc2nc(-c3cnn4ccnc4c3)cc(-c3ccnn3C)c2c1N (stereo not shown) [Example 318],< 2.5 nM
23,Cn1nccc1-c1cc(-c2cnn3ccnc3c2)nc2sc([S+]([O-])C3CCC3)c(N)c12 (stereo not shown) [Example 319],< 2.5 nM
24,Cn1nccc1-c1cc(-c2cnc3nccn3c2)nc2sc([S+]([O-])C3CCC3)c(N)c12 (stereo not shown) [Example 320],< 2.5 nM
25,COCC[S+]([O-])c1sc2nc(-c3cnc4c(c3)nnn4C)cc(-c3ccnn3C)c2c1N (stereo not shown) [Example 324],< 2.5 nM
26,Cn1nccc1-c1cc(-c2cnc3c(c2)nnn3C)nc2sc([S+]([O-])C3CCC3)c(N)c12 (stereo not shown) [Example 325],< 2.5 nM
27,Cn1nccc1-c1cc(-c2cnc3c(c2)nnn3C)nc2sc([S@+]([O-])C3CCC3)c(N)c12 [Example 326],< 2.5 nM
28,Cn1nccc1-c1cc(-c2cnc3c(c2)nnn3C)nc2sc([S@@+]([O-])C3CCC3)c(N)c12 [Example 327],≥ 10 nM

row,SMILES,IC50
1,Nc1ncc(-c2cc(-c3ncccn3)c3c(N)c([S+]([O-])C4CCC4)sc3n2)cn1 (stereo not shown) [Example 328],< 2.5 nM
2,CNc1ncc(-c2cc(-c3ncccn3)c3c(N)c([S+]([O-])C4CCC4)sc3n2)cn1 (stereo not shown) [Example 329],< 2.5 nM
3,CNc1ncc(-c2cc(-c3ccnn3C)c3c(N)c([S+]([O-])CCOC)sc3n2)cn1 (stereo not shown) [Example 330],< 2.5 nM
4,CNc1ncc(-c2cc(-c3ccnn3C)c3c(N)c([S@+]([O-])CCOC)sc3n2)cn1 [Example 331],< 2.5 nM
5,CNc1ncc(-c2cc(-c3ccnn3C)c3c(N)c([S@@+]([O-])CCOC)sc3n2)cn1 [Example 332],≥ 10 nM
6,Cn1cc2cc(-c3cc(-c4ccnn4C)c4c(N)c([S+]([O-])C5CCC5)sc4n3)cnc2n1 (stereo not shown) [Example 333],< 2.5 nM
7,COCC[S+]([O-])c1sc2nc(-c3cnc4nn(C)cc4c3)cc(-c3ccnn3C)c2c1N (stereo not shown) [Example 334],< 2.5 nM
8,COCC[S@@+]([O-])c1sc2nc(-c3cnc4nn(C)cc4c3)cc(-c3ccnn3C)c2c1N [Example 335],< 2.5 nM
9,COCC[S@+]([O-])c1sc2nc(-c3cnc4nn(C)cc4c3)cc(-c3ccnn3C)c2c1N [Example 336],≥ 10 nM
10,COCC[S+]([O-])c1sc2nc(-c3cncnc3)cc(-c3ccn(C)n3)c2c1N (stereo not shown) [Example 337],< 2.5 nM
11,Cn1ccc(-c2cc(-c3cnc(N)nc3)nc3sc([S+]([O-])C4CCC4)c(N)c23)n1 (stereo not shown) [Example 338],< 2.5 nM
12,CNc1ncc(-c2cc(-c3ccn(C)n3)c3c(N)c([S+]([O-])CCOC)sc3n2)cn1 (stereo not shown) [Example 339],< 2.5 nM
13,Cn1ccc(-c2cc(-c3cnc(NCCO)nc3)nc3sc([S+]([O-])C4CCC4)c(N)c23)n1 (stereo not shown) [Example 340],< 2.5 nM
14,Cn1ccc(-c2cc(-c3cnc4nn(C)cc4c3)nc3sc([S+]([O-])C4CCC4)c(N)c23)n1 (stereo not shown) [Example 341],< 2.5 nM
15,COCC[S+]([O-])c1sc2nc(-c3cnc4nn(C)cc4c3)cc(-c3ccn(C)n3)c2c1N (stereo not shown) [Example 342],< 2.5 nM
16,COCC[S@@+]([O-])c1sc2nc(-c3cnc4nn(C)cc4c3)cc(-c3ccn(C)n3)c2c1N [Example 343],< 2.5 nM
17,COCC[S@+]([O-])c1sc2nc(-c3cnc4nn(C)cc4c3)cc(-c3ccn(C)n3)c2c1N [Example 344],≥ 10 nM
18,Cn1nccc1-c1cc(-c2ccnnc2)nc2sc([S+]([O-])C3CCC3)c(N)c12 (stereo not shown) [Example 345],< 2.5 nM
19,COCC[S@@+]([O-])c1sc2nc(-c3cnc(N)nc3)cc(C3CCC3)c2c1N [Example 346],< 2.5 nM
20,COCC[S+]([O-])c1sc2nc(-c3ccnnc3)cc(C3CCC3)c2c1N (stereo not shown) [Example 347],< 2.5 nM
21,Nc1c([S+]([O-])C2CCC2)sc2nc(-c3cnc4nn(CCO)cc4c3)cc(C3CCC3)c12 (stereo not shown) [Example 348],2.5 to 10 nM
22,COCC[S@@+]([O-])c1sc2nc(-c3cnc(NCCO)nc3)cc(C3CCC3)c2c1N [Example 349],< 2.5 nM
23,Nc1ncc(-c2cc(-c3ccno3)c3c(N)c([S+]([O-])C4CCC4)sc3n2)cn1 (stereo not shown) [Example 350],< 2.5 nM
24,Nc1c([S+]([O-])C2CCC2)sc2nc(-c3cnc(NCCO)nc3)cc(-c3ccon3)c12 (stereo not shown) [Example 351],< 2.5 nM
25,COCC[S+]([O-])c1sc2nc(-c3cncnc3)cc(-c3ccon3)c2c1N (stereo not shown) [Example 352],< 2.5 nM
26,CC(C)(C)[S+]([O-])c1sc2nc(-c3cnc(NCCO)nc3)cc(C3CCC3)c2c1N (stereo not shown) [Example 353],2.5 to 10 nM
27,Cn1nccc1-c1cc(-c2cnc(NCCO)nc2)nc2sc([S+]([O-])C(C)(C)C)c(N)c12 (stereo not shown) [Example 354],< 2.5 nM

# — US12336982B2 (RODEO THERAPEUTICS CORPORATION, priority 2018, dated 2025)
